Assay results as given in paper doi:10.1101/2021.03.02.433618v2 (biorxiv, 2021).
Like-named read-outs stand apart in the source and are kept apart here.

How the values were obtained:
3CLpro [1] = target: T1, 3CLpro (Severe acute respiratory syndrome coronavirus 2, UniProt P0DTD1); test: biochemical
3CLpro [2] = target: T1, 3CLpro; test: biochemical; remark: listed apart in the source

| Structure (SMILES) | IC50 (3CLpro [1]) | IC50 (3CLpro [2]) |
| --- | --- | --- |
| CC(=O)c1c(O)c(C)c(O)c(Cc2c(O)c3c(c(C(=O)/C=C/c4ccccc4)c2O)OC(C)(C)C=C3)c1O [rottlerin] | 37 µM |  |
| O=c1cc(-c2ccc(O)c(O)c2)oc2cc(O)cc(O)c12 [luteolin] |  | 343 ± 77 µM |
| O=c1cc(-c2ccc(O)c(-c3c(O)cc(O)c4c(=O)cc(-c5ccc(O)cc5)oc34)c2)oc2cc(O)cc(O)c12 [amentoflavone] |  | 143 ± 23 µM |
